Target: T1, Human Glucocorticoid Receptor (Homo sapiens, UniProt P04150)
T1 construct: endogenous in cells; host or cells: HeLa cells (stably transfected with the sPAP reporter under the MMTV LTR)
T1 sequence (P04150 1-777): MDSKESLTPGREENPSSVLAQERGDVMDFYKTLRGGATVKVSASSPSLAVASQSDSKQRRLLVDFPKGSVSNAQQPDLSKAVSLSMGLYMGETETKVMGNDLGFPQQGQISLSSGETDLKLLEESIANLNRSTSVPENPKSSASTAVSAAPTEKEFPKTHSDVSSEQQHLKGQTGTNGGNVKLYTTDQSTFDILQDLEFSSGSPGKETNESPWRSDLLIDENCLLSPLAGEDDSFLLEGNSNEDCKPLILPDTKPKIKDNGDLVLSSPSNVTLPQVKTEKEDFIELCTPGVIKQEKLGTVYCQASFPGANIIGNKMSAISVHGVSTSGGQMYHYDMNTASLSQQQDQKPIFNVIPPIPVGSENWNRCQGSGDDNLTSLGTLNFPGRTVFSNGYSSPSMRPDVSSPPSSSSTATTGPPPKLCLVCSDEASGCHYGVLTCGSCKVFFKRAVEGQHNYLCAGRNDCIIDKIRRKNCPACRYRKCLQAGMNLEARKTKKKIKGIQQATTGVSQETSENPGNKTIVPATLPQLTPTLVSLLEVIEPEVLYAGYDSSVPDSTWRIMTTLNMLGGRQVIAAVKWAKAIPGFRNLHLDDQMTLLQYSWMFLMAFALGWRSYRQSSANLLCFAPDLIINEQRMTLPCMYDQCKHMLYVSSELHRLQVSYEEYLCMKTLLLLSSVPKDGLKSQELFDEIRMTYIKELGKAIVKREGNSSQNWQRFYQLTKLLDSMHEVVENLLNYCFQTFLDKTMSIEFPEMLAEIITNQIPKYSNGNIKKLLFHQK
Assay: functional in vitro glucocorticoid assay, sPAP reporter under MMTV LTR in transfected Hela cells
Type: cell-based
Conditions: sPAP transcription in transfected Hela cells, 72 hours incubation
Source text: The functional assay used was a modification of the method described by T. S Berger et al, of J. of Steroid Biochem. Molec. Biol. 1992, 41 (3-8), 733-738, "Interaction of Glucocorticoid analogues with the Human Glucocorticoid Receptor".
Thus, Hela cells were stably transfected with a detectable reporter gene (secreted placental alkaline phosphatase, sPAP) under the control of a glucocorticoid response promoter (the LTR of the mouse mammary tumour virus, MMTV).
Various concentrations of standard (dexamethasone) or compounds of the invention were incubated with transfected Hela cells for 72 hours. At the end of the incubation, substrate ([…]) for sPAP was added and the product measured by a spectrophotometric method. Increased absorbance reflected increased sPAP transcription and concentration-response lines were constructed such that EC50 -values could be estimated.

Structure (SMILES)	EC50 [nM]
CCC(=O)O[C@]1(C(=O)SC2CCOC2=O)[C@@H](C)C[C@H]2[C@@H]3CCC4=CC(=O)C=C[C@]4(C)[C@@]3(F)[C@@H](O)C[C@@]21C (single isomer, unassigned) [Example 7, 9α-Fluoro-11β-hydroxy-16β-methyl-3-oxo-17α-propionyloxy-androsta-1,4-diene-17β-carbothioic acid S-(2-oxo-tetrahydro-furan-3-yl) ester]	< 400
CC1(C)O[C@@H]2C[C@H]3[C@@H]4C[C@H](F)C5=CC(=O)C=C[C@]5(C)[C@@]4(F)[C@@H](O)C[C@]3(C)[C@]2(C(=O)SC2CCOC2=O)O1 (single isomer, unassigned) [Example 12, 6α,9α-Difluoro-11β-hydroxy-16α,17α-isopropylidenedioxy-3-oxoandrosta-1,4-diene-17β-carbothioic acid S-(2-oxo-tetrahydro-furan-3-yl) ester]	< 400
CCC[C@@H]1O[C@@H]2C[C@H]3[C@@H]4C[C@H](F)C5=CC(=O)CC[C@]5(C)[C@@]4(F)[C@@H](O)C[C@]3(C)[C@]2(C(=O)SC2CCOC2=O)O1 (single isomer, unassigned) [Example 19, 16α,17α-(R-Butylidenedioxy)-6α,9α-difluoro-11β-hydroxy-3-oxo-androst-4-ene-17β-carbothioic acid S-(2-oxo-tetrahydro-furan-3-yl) ester]	< 400
CCC(=O)O[C@]1(C(=O)SC2CCOC2=O)[C@H](C)C[C@H]2[C@@H]3C[C@H](F)C4=CC(=O)C=C[C@]4(C)[C@@]3(F)[C@@H](O)C[C@@]21C (stereo partly drawn) [Example 1, 6α,9α-Difluoro-11β-hydroxy-16α-methyl-3-oxo-17α-propionyloxy-androsta-1,4-diene-17β-carbothioic acid S-(2-oxo-tetrahydro-furan-3-yl) ester]	< 400
CCC(=O)O[C@]1(C(=O)SC2CCOC2=O)[C@H](C)C[C@H]2[C@@H]3C[C@H](F)C4=CC(=O)CC[C@]4(C)[C@@]3(F)[C@@H](O)C[C@@]21C (stereo partly shown) [Example 4]	< 400
CCCC(=O)O[C@]1(C(=O)SC2CCOC2=O)[C@H](C)C[C@H]2[C@@H]3C[C@H](F)C4=CC(=O)C=C[C@]4(C)[C@@]3(F)[C@@H](O)C[C@@]21C (stereo partly drawn) [Example 5, 17α-Butyryloxy-6α,9α-difluoro-11β-hydroxy-16α-methyl-3-oxo-androsta-1,4-diene-17β-carbothioic acid S-(2-oxo-tetrahydro-furan-3-yl) ester]	< 400
CC(=O)O[C@]1(C(=O)SC2CCOC2=O)[C@H](C)C[C@H]2[C@@H]3C[C@H](F)C4=CC(=O)C=C[C@]4(C)[C@@]3(F)[C@@H](O)C[C@@]21C (stereo partly drawn) [Example 6, 17α-Acetyloxy-α,9α-difluoro-11β-hydroxy-16α-methyl-3-oxo-androsta-1,4-diene-17β-carbothioic acid S-(2-oxo-tetrahydro-furan-3-yl) ester]	< 400
CCC(=O)O[C@]1(C(=O)SC2CCC(=O)O2)[C@H](C)C[C@H]2[C@@H]3C[C@H](F)C4=CC(=O)C=C[C@]4(C)[C@@]3(F)[C@@H](O)C[C@@]21C (stereo partly drawn) [Example 8, 6α,9α-Difluoro-11β-hydroxy-16α-methyl-3-oxo-17α-propionyloxy-androsta-1,4-diene-11β-carbothioic acid S-(5-oxo-tetrahydro-furan-2-yl) ester]	< 400
CCC(=O)O[C@]1(C(=O)SC2COC(=O)C2)[C@H](C)C[C@H]2[C@@H]3C[C@H](F)C4=CC(=O)C=C[C@]4(C)[C@@]3(F)[C@@H](O)C[C@@]21C (stereo partly drawn) [Example 9, 6α,9α-Difluoro-11α-hydroxy-16α-methyl-3-oxo-17α-propionyloxy-androsta-1,4-diene-17β-carbothioic acid S-(2-oxo-tetrahydro-furan-4-yl) ester]	< 400
CC1(C)O[C@@H]2C[C@H]3[C@@H]4C[C@H](F)C5=CC(=O)C=C[C@]5(C)[C@@]4(F)[C@@H](O)C[C@]3(C)[C@]2(C(=O)N[C@H]2COC(=O)C2)O1 [Example 24, 6α,9α-Difluoro-11β-hydroxy-16α,17α-isopropylidenedioxy-3-oxo-androsta-1,4-diene-17β-carboxylic acid N-(2-oxo-tetrahydro-furan-4R-yl) amide]	< 400
